Assay [1] has as its system MCF7 cells (breast tumor cells) WT. As to the kind of experiment: Test B: cell proliferation/viability assay (CellTiter-Glo) on MCF7 WT. The class given is cell-based. The following applies: Homo sapiens, MCF7, 168 h, 7 days of compound exposure. The gist of the method: (§1)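 Seven-day compound exposure, 9 concentrations from 3 to 0.000001 μM, in phenol red-free medium with 5% charcoal-stripped serum. ER Tyr537Ser and Asp538Gly lines derive from transfected MCF7 selected to grow without estradiol. Viability from CellTiter-Glo luminescence, background-corrected, as percent of untreated.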
(In general: In ATP-based viability assays light output follows the ATP content of the culture.)

Assay [2] deals with His6-ERα298-554 WT (ERα ligand-binding domain) (Homo sapiens (Human), UniProt P03372). As to the kind of experiment: Test A: biochemical antagonist activity, LanthaScreen TR-FRET ERα coactivator assay, WT. The settings on record: read-out: Antagonism WT IC50. The essentials: (§2)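 His6-ERα LBD (aa 298–554), 0.5 nM, with Tb-anti-His6 antibody, 250 nM PGC1a peptide and 3 nM (or 10 nM) estradiol in pH 7.4 potassium phosphate/DTT buffer; incubated with compound overnight at room temperature. IC50 from 4-parameter logistic fit of TR-FRET 520:495 nm ratio.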
Background: TR-FRET usually uses a lanthanide donor and a delayed reading to cut background.

The target of assay [3] is His6-ERα298-554 D538G mutant (ERα ligand-binding domain) (Homo sapiens (Human), UniProt P03372, D538G). As to the kind of experiment: Test A: biochemical antagonist activity, LanthaScreen TR-FRET ERα coactivator assay, D538G mutant. The settings on record: read-out: Antagonism D538G IC50. The essentials:
as §2

In assay [4] the test system is MCF7 cells expressing mutant estrogen receptor Asp 538 Gly. Put plainly: Test B: cell proliferation/viability assay (CellTiter-Glo) on MCF7 Asp 538 Gly mutant. The following applies: Homo sapiens, MCF7, 168 h, MCF7 cells expressing ER Asp 538 Gly mutant, 7 days of compound exposure, read-out: proliferation MCF7 D538G IC50. The class given is cell-based. The gist of the method: as §1

The test system of assay [5] is MCF7 cells expressing mutant estrogen receptor Tyr 537 Ser. Put plainly: Test B: cell proliferation/viability assay (CellTiter-Glo) on MCF7 Tyr 537 Ser mutant. In kind it is cell-based. The settings on record: Homo sapiens, MCF7, 168 h, MCF7 cells expressing ER Tyr 537 Ser mutant, 7 days of compound exposure, read-out: proliferation MCF7 Y537S IC50. The gist of the method:
as §1

Assay [6] concerns the target His6-ERα298-554 Y537S mutant (ERα ligand-binding domain) (Homo sapiens (Human), UniProt P03372, Y537S). Put plainly: Test A: biochemical antagonist activity, LanthaScreen TR-FRET ERα coactivator assay, Y537S mutant. The following applies: read-out: Antagonism Y537S IC50. The gist of the method:
as §2

Assay [7] has as its target ERα in MCF7 cells (Homo sapiens (Human), UniProt P03372). Put plainly: Test C: estrogen receptor degradation activity, ERα in cell western assay in MCF7 cells. The class given is cell-based. The settings on record: for DC50: 4 hours post compound addition, ERα in cell western, read-out: Degradation IC50; for % Degradation at 3 μM: 4 hours, relative to fulvestrant. The essentials:
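In-cell western: ERα level (green) against DNA stain Syto-64 (red) by integrated intensity. MCF7 cells in hormone-depleted medium exposed 4 h to compound at 3-0.000018 μM final (1:5 series); fulvestrant 0.1 μM as positive control.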

Where [8] appears, read: asterisk (*): protocol using 10 nM estradiol.

Structures are written as SMILES. Read-outs that look alike come from different tables or passages of the source.

Chain of His6-ERα298-554 Y537S mutant (ERα ligand-binding domain) (P03372 298-554 Y537S): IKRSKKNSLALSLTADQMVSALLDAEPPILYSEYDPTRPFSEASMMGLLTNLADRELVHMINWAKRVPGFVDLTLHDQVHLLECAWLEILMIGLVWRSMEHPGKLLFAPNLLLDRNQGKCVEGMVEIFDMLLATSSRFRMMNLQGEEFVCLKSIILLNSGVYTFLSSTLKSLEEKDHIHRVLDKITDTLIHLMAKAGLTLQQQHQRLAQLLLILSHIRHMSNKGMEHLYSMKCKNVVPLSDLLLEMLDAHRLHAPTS
Chain of ERα in MCF7 cells (P03372 whole entry): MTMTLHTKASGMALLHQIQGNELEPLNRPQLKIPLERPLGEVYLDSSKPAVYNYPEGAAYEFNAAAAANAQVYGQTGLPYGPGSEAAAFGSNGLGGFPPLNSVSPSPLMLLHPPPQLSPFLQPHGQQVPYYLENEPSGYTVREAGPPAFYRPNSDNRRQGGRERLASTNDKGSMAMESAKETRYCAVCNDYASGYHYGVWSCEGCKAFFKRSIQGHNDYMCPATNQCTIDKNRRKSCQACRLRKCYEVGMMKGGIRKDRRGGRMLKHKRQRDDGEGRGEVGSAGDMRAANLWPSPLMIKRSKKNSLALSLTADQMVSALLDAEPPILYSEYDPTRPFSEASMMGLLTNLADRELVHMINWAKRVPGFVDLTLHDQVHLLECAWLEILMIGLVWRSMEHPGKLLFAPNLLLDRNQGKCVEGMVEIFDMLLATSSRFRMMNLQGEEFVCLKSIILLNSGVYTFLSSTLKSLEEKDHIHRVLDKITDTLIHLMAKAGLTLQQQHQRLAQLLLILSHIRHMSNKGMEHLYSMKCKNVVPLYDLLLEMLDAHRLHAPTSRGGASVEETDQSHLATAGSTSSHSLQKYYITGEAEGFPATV
Chain of His6-ERα298-554 WT (ERα ligand-binding domain) (P03372 298-554): as the sequence (P03372 298-554 Y537S) above, with S240Y counted along it
Chain of His6-ERα298-554 D538G mutant (ERα ligand-binding domain) (P03372 298-554 D538G): as the sequence (P03372 298-554 Y537S) above, with S240Y, D241G counted along it

For the compound `Cc1ccc(C2=C(c3ccc(O[C@H]4CCN(CCCF)C4)cc3)c3ccc(O)cc3SC2)c(F)c1F` [Example 64, 3-(2,3-difluoro-4-methyl-phenyl)-4-[4-[(3S)-1-(3-fluoropropyl)pyrrolidin-3-yl]oxyphenyl]-2H-thiochromen-7-ol], the IC50 in assay [1] came out at 1 nM; in assay [2] (setting [8]), 24 nM; in assay [3] (setting [8]), 492 nM; in assay [4], 0.7 nM; in assay [5], 5 nM; in assay [6] (setting [8]), 204 nM. Moreover, in assay [7], the DC50 is 0.2 nM. Further, the “% Degradation at 3 μM” value in assay [7] was found to be 81%.

As to `CC(C)(C)OC(=O)Nc1ccc(C2=C(c3ccc(O[C@H]4CCN(CCCF)C4)cc3)c3ccc(O)cc3SC2)c(F)n1` [Example 65, tert-butyl N-[6-fluoro-5-[4-[4-[(3S)-1-(3-fluoropropyl)pyrrolidin-3-yl]oxyphenyl]-7-hydroxy-2H-thiochromen-3-yl]-2-pyridyl]carbamate], the IC50 was 21 nM in assay [1]; 1220 nM in assay [2] (setting [8]); greater than 4000 nM in assay [3] (setting [8]); 21 nM in assay [4]; 572 nM in assay [5]; greater than 4000 nM in assay [6] (setting [8]). Further, in assay [7], the DC50 stood at 38 nM. Also, the “% Degradation at 3 μM” value in assay [7] amounted to 71%.

As to `Oc1ccc2c(c1)SCC(c1ccc(SC(F)(F)F)cc1)=C2c1ccc(O[C@H]2CCN(CCCF)C2)cc1` [Example 66, 4-[4-[(3S)-1-(3-fluoropropyl)pyrrolidin-3-yl]oxyphenyl]-3-[4-(trifluoromethylsulfanyl)phenyl]-2H-thiochromen-7-ol], the IC50 in assay [1] is 2 nM; in assay [2] (protocol with 3 nM estradiol), 59 nM; in assay [3] (protocol with 3 nM estradiol), 1800 nM; in assay [4] it was 2 nM; in assay [5], 8 nM; in assay [6] (protocol with 3 nM estradiol), 362 nM. Moreover, the DC50 in assay [7] came to 0.2 nM. Besides, the “% Degradation at 3 μM” value in assay [7] is listed as 84%.

Consider `Oc1ccc2c(c1)SCC(c1ccc3ncccc3c1)=C2c1ccc(O[C@H]2CCN(CCCF)C2)cc1` [Example 67, 4-[4-[(3S)-1-(3-fluoropropyl)pyrrolidin-3-yl]oxyphenyl]-3-(6-quinolyl)-2H-thiochromen-7-ol], for which the IC50 in assay [1] was determined as 12 nM; in assay [2] (setting [8]) it was 120 nM; in assay [3] (setting [8]), 1810 nM; in assay [4] it was 16 nM; in assay [5], 86 nM; in assay [6] (setting [8]) it was 1280 nM. The DC50 in assay [7] stood at 1 nM. For the same compound, the “% Degradation at 3 μM” value in assay [7] was found to be 90%.

In the case of `CCOc1nccc(C2=C(c3ccc(O[C@H]4CCN(CCCF)C4)cc3)c3ccc(O)cc3SC2)c1F` [Example 69, 3-(2-ethoxy-3-fluoro-4-pyridyl)-4-[4-[(3S)-1-(3-fluoropropyl)pyrrolidin-3-yl]oxyphenyl]-2H-thiochromen-7-ol], the IC50 is 0.2 nM in assay [1]; 1570 nM in assay [2] (setting [8]); greater than 4000 nM in assay [3] (setting [8]); 0.2 nM in assay [4]; 0.8 nM in assay [5]; greater than 4000 nM in assay [6] (setting [8]). Further, the DC50 in assay [7] is 0.2 nM. Further, the “% Degradation at 3 μM” value in assay [7] was determined as 81%.

In the case of `Nc1ccc(C2=C(c3ccc(O[C@H]4CCN(CCCF)C4)cc3)c3ccc(O)cc3SC2)c(F)n1` [Example 72, 3-(6-amino-2-fluoro-3-pyridyl)-4-[4-[(3S)-1-(3-fluoropropyl)pyrrolidin-3-yl]oxyphenyl]-2H-thiochromen-7-ol], the IC50 worked out at 2 nM in assay [1]; 11 nM in assay [2] (setting [8]); 202 nM in assay [3] (setting [8]); 0.5 nM in assay [4]; 1 nM in assay [5]; 108 nM in assay [6] (setting [8]). The DC50 in assay [7] was 0.2 nM. Besides, in assay [7], the “% Degradation at 3 μM” value is reported as 91%.

With `CC1(C)CNc2ccc(C3=C(c4ccc(O[C@H]5CCN(CCCF)C5)cc4)c4ccc(O)cc4SC3)cc21` [Example 73, 3-(3,3-dimethylindolin-5-yl)-4-[4-[(3S)-1-(3-fluoropropyl)pyrrolidin-3-yl]oxyphenyl]-2H-thiochromen-7-ol], the IC50 in assay [1] is 95 nM; in assay [2] (setting [8]) it was 1110 nM; in assay [3] (setting [8]), greater than 4000 nM; in assay [4], 119 nM; in assay [5], 377 nM; in assay [6] (setting [8]), greater than 4000 nM. Also, the DC50 in assay [7] came to 6 nM. Also, in assay [7], the “% Degradation at 3 μM” value is listed as 86%.

For the compound `CCN(CC)c1ccc(C2=C(c3ccc(O[C@H]4CCN(CCCF)C4)cc3)c3ccc(O)cc3SC2)c(F)c1` [Example 74, 3-[4-(diethylamino)-2-fluoro-phenyl]-4-[4-[(3S)-1-(3-fluoropropyl)pyrrolidin-3-yl]oxyphenyl]-2H-thiochromen-7-ol], the IC50 in assay [1] is 12 nM; in assay [2] (setting [8]), 322 nM; in assay [3] (setting [8]) it was greater than 4000 nM; in assay [4], 16 nM; in assay [5], 173 nM; in assay [6] (setting [8]), 2380 nM. Also, the DC50 in assay [7] worked out at 4 nM. In assay [7], the “% Degradation at 3 μM” value is 83%.

For `CC(C)(C)c1ccc(C2=C(c3ccc(O[C@H]4CCN(CCCF)C4)cc3)c3ccc(O)cc3SC2)c(F)n1` [Example 75, 3-(6-tert-butyl-2-fluoro-3-pyridyl)-4-[4-[(3S)-1-(3-fluoropropyl)pyrrolidin-3-yl]oxyphenyl]-2H-thiochromen-7-ol], the IC50 is 63 nM in assay [1]; 2490 nM in assay [2] (setting [8]); greater than 4000 nM in assay [3] (setting [8]); 74 nM in assay [4]; greater than 999 nM in assay [5]; greater than 4000 nM in assay [6] (setting [8]). Further, in assay [7], the DC50 stood at 27 nM. In assay [7], the “% Degradation at 3 μM” value is 92%.

In the case of `CCOc1ccc(C2=C(c3cnc(O[C@H]4CCN(CCCF)C4)nc3)c3ccc(O)cc3SC2)c(F)n1` [Example 76, 3-(6-ethoxy-2-fluoro-3-pyridyl)-4-[2-[(3S)-1-(3-fluoropropyl)pyrrolidin-3-yl]oxypyrimidin-5-yl]-2H-thiochromen-7-ol], the IC50 in assay [1] is 0.6 nM; in assay [2] (setting [8]) it was 4 nM; in assay [3] (setting [8]), 100 nM; in assay [4], 1 nM; in assay [5], 6 nM; in assay [6] (setting [8]), 61 nM. The DC50 in assay [7] came out at 0.6 nM. Besides, the “% Degradation at 3 μM” value in assay [7] was determined as 88%.

In the case of `Cc1ccc(C2=C(c3cnc(O[C@H]4CCN(CCCF)C4)nc3)c3ccc(O)cc3SC2)c(F)c1` [Example 77, 3-(2-fluoro-4-methyl-phenyl)-4-[2-[(3S)-1-(3-fluoropropyl)pyrrolidin-3-yl]oxypyrimidin-5-yl]-2H-thiochromen-7-ol], the IC50 was 2 nM in assay [1]; 16 nM in assay [2] (setting [8]); 323 nM in assay [3] (setting [8]); 5 nM in assay [4]; 29 nM in assay [5]; 197 nM in assay [6] (setting [8]). Further, the DC50 in assay [7] was determined as 1 nM. In assay [7], the “% Degradation at 3 μM” value is recorded as 91%.

As to `Cc1ccc(C2=C(c3ccc(O[C@H]4CCN(CCCF)C4)nc3)c3ccc(O)cc3SC2)c(F)c1` [Example 78, 3-(2-fluoro-4-methyl-phenyl)-4-[6-[(3S)-1-(3-fluoropropyl)pyrrolidin-3-yl]oxy-3-pyridyl]-2H-thiochromen-7-ol], the IC50 in assay [1] is 0.3 nM; in assay [2] (setting [8]) it was 1 nM; in assay [3] (setting [8]), 29 nM; in assay [4], 0.9 nM; in assay [5] it was 4 nM; in assay [6] (setting [8]) it was 15 nM. The DC50 in assay [7] was determined as 0.2 nM. Besides, the “% Degradation at 3 μM” value in assay [7] is 88%.

The values are drawn from patent publication US11149031B2, “Substituted N-(3-fluoropropyl)-pyrrolidine compounds, processes for their preparation and therapeutic uses thereof” (SANOFI, priority 2016, dated 2021).
